Laboratory results from PMC3914206.

Legend:
Assay in all cases: KiNativ chemical proteomics profiling in HeLa and PC3 cell lysates
Format in all cases: binding
[1] = biological target: T1, selected panels of kinases in HeLa and PC3 cell lysates (Homo sapiens, UniProt Q13233); conditions: 10 uM; proteome HEL; peptide DVk[…]; labeling site Lys2
T1 construct: endogenous in cells; host or cells: HeLa and PC3 cell lysates

[2] = biological target: T2, selected panels of kinases in HeLa and PC3 cell lysates (Homo sapiens, UniProt Q16584); conditions: 10 uM, peptide DLk[…], labeling site Lys2
T2 construct: endogenous in cells; host or cells: HeLa and PC3 cell lysates

[3] = biological target: T3, selected panels of kinases in HeLa and PC3 cell lysates (Homo sapiens, UniProt O60307); conditions: 10 uM, peptide DLk[…], labeling site Lys2
T3 construct: endogenous in cells; host or cells: HeLa and PC3 cell lysates

[4] = biological target: T4, selected panels of kinases in HeLa and PC3 cell lysates (Homo sapiens, UniProt Q9Y6R4); conditions: 10 uM, peptide DIk[…], labeling site Lys2
T4 construct: endogenous in cells; host or cells: HeLa and PC3 cell lysates

[5] = biological target: T5, selected panels of kinases in HeLa and PC3 cell lysates (Homo sapiens, UniProt P49841); conditions: 10 uM; proteome PC3; peptide DIk[…]; labeling site Lys2
T5 construct: endogenous in cells; host or cells: HeLa and PC3 cell lysates

[6] = biological target: T6, selected panels of kinases in HeLa and PC3 cell lysates (Homo sapiens, UniProt O60674); conditions: 10 uM; proteome HEL; peptide IGDFGLTk[…]; labeling site Activation Loop
T6 construct: endogenous in cells; host or cells: HeLa and PC3 cell lysates

[7] = biological target: T7, selected panels of kinases in HeLa and PC3 cell lysates (Homo sapiens, UniProt O15111); conditions: 10 uM; proteome HEL; peptide DLk[…]; labeling site Lys2
T7 construct: endogenous in cells; host or cells: HeLa and PC3 cell lysates

[8] = biological target: T8, selected panels of kinases in HeLa and PC3 cell lysates (Homo sapiens, UniProt P52333); conditions: 10 uM; proteome HEL; peptide IADFGLAkLLPLDKDYYVVR; labeling site Activation Loop
T8 construct: endogenous in cells; host or cells: HeLa and PC3 cell lysates

[9] = biological target: T9, selected panels of kinases in HeLa and PC3 cell lysates (Homo sapiens, UniProt Q13555); conditions: 10 uM, peptide TSTQEYAAkIINTK, labeling site Lys1
T9 construct: endogenous in cells; host or cells: HeLa and PC3 cell lysates

[10] = biological target: T10, selected panels of kinases in HeLa and PC3 cell lysates (Homo sapiens, UniProt Q92918); conditions: 10 uM; proteome HEL; peptide […]kMVK; labeling site Lys1
T10 construct: endogenous in cells; host or cells: HeLa and PC3 cell lysates

[11] = biological target: T11, selected panels of kinases in HeLa and PC3 cell lysates (Homo sapiens, UniProt Q9Y616); conditions: 10 uM; proteome HEL; peptide […]k[…]; labeling site Protein Kinase Domain
T11 construct: endogenous in cells; host or cells: HeLa and PC3 cell lysates

[12] = biological target: T12, selected panels of kinases in HeLa and PC3 cell lysates (Homo sapiens, UniProt Q00536); conditions: 10 uM; PCTAIRE1; peptide LTDNLVALkEIR; proteome PC3; labeling site Lys1
T12 construct: endogenous in cells; host or cells: HeLa and PC3 cell lysates

[13] = biological target: T13, selected panels of kinases in HeLa and PC3 cell lysates (Homo sapiens, UniProt Q15418); conditions: 10 uM; RSK1 domain1; peptide LTDFGLSkEAIDHEK; proteome HEL; labeling site Activation Loop
T13 construct: endogenous in cells; host or cells: HeLa and PC3 cell lysates

[14] = biological target: T14, selected panels of kinases in HeLa and PC3 cell lysates (Homo sapiens, UniProt Q13188); conditions: 10 uM, peptide […]k[…], labeling site Lys1
T14 construct: endogenous in cells; host or cells: HeLa and PC3 cell lysates
T14 sequence (Q13188 1-491): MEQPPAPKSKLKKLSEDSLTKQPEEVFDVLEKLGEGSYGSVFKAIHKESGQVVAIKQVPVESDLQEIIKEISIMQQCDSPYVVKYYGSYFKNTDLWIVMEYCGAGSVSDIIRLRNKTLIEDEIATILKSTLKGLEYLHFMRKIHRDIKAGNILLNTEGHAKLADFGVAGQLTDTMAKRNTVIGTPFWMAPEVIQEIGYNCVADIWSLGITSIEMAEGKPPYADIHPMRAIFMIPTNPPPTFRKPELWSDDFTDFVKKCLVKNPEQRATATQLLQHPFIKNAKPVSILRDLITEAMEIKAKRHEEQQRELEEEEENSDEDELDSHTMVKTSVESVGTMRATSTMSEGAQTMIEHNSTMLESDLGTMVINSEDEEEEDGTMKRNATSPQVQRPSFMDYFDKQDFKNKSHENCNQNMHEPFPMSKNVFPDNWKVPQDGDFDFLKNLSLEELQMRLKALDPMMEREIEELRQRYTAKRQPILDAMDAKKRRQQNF

[15] = biological target: T15, selected panels of kinases in HeLa and PC3 cell lysates (Homo sapiens, UniProt Q58A45); conditions: 10 uM; PAN3; peptide VMDPTkILITGK; proteome HEL
T15 construct: endogenous in cells; host or cells: HeLa and PC3 cell lysates

[16] = biological target: T16, selected panels of kinases in HeLa and PC3 cell lysates (Homo sapiens, UniProt Q13043); conditions: 10 uM, peptide […]k[…], labeling site Lys1
T16 construct: endogenous in cells; host or cells: HeLa and PC3 cell lysates
T16 sequence (Q13043 1-487): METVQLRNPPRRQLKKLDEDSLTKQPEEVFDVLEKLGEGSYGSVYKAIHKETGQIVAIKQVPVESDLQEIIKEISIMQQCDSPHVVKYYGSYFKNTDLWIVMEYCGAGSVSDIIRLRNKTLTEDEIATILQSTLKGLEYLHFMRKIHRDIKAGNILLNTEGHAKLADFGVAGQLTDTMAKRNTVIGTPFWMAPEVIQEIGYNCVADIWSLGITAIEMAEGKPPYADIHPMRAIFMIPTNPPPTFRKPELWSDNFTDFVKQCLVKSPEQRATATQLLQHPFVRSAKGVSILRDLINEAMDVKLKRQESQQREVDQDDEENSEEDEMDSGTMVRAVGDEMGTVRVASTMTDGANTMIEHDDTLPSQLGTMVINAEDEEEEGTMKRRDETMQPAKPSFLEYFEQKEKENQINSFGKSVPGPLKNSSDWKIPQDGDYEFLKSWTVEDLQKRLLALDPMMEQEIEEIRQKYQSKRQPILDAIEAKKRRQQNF

T9 sequence (Q13555 whole entry): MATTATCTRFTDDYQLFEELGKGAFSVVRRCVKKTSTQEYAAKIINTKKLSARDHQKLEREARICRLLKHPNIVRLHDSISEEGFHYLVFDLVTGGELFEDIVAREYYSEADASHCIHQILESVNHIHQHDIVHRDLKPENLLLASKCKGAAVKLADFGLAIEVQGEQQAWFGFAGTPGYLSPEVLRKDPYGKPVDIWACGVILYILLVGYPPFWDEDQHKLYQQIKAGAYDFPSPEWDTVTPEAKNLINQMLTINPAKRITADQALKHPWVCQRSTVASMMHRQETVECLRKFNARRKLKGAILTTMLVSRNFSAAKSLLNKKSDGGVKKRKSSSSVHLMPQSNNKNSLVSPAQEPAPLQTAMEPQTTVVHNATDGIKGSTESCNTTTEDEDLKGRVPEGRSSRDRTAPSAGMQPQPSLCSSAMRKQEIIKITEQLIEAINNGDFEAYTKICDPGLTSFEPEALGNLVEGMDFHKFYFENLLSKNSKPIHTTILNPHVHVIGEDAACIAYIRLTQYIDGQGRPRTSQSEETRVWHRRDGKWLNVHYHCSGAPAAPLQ
T4 sequence (Q9Y6R4 whole entry): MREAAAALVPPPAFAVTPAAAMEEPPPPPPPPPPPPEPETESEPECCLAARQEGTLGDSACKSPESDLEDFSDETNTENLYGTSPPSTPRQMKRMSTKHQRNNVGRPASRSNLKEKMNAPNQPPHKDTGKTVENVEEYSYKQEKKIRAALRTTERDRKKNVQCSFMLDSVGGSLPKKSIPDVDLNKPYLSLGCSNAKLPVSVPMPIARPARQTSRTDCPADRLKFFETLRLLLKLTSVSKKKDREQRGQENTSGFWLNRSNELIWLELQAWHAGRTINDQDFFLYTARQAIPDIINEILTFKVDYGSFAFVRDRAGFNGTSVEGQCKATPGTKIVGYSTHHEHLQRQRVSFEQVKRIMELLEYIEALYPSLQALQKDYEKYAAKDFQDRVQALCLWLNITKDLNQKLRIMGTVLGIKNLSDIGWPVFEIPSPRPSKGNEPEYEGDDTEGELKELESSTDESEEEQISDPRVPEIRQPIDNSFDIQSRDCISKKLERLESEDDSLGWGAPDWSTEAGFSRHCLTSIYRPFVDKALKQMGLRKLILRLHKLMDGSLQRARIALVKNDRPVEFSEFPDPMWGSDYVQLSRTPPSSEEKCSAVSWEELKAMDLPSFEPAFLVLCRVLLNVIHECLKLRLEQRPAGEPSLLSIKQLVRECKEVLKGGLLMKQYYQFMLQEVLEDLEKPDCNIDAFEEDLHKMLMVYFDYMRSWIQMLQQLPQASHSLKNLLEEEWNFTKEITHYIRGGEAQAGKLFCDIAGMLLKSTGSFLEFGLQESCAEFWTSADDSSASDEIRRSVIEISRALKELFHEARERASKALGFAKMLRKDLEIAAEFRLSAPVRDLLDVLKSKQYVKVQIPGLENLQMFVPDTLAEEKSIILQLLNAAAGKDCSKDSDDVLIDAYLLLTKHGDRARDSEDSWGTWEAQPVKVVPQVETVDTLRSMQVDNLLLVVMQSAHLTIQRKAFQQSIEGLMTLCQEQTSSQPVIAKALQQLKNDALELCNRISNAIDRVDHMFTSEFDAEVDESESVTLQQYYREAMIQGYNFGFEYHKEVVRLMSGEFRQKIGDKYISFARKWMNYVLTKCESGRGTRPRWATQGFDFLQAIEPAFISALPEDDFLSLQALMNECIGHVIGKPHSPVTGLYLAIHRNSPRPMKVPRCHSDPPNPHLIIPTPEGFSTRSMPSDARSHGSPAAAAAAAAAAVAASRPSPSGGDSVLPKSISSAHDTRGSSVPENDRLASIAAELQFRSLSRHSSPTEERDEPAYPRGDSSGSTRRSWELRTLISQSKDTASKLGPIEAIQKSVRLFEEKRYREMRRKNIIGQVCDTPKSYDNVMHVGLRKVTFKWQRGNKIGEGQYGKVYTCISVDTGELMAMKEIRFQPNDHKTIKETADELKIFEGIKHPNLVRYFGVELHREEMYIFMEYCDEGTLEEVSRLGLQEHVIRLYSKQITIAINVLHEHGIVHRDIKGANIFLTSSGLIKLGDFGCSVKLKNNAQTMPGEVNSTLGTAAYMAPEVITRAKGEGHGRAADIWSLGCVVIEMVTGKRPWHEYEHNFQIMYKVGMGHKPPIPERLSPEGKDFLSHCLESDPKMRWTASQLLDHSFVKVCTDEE
T3 sequence (O60307 whole entry): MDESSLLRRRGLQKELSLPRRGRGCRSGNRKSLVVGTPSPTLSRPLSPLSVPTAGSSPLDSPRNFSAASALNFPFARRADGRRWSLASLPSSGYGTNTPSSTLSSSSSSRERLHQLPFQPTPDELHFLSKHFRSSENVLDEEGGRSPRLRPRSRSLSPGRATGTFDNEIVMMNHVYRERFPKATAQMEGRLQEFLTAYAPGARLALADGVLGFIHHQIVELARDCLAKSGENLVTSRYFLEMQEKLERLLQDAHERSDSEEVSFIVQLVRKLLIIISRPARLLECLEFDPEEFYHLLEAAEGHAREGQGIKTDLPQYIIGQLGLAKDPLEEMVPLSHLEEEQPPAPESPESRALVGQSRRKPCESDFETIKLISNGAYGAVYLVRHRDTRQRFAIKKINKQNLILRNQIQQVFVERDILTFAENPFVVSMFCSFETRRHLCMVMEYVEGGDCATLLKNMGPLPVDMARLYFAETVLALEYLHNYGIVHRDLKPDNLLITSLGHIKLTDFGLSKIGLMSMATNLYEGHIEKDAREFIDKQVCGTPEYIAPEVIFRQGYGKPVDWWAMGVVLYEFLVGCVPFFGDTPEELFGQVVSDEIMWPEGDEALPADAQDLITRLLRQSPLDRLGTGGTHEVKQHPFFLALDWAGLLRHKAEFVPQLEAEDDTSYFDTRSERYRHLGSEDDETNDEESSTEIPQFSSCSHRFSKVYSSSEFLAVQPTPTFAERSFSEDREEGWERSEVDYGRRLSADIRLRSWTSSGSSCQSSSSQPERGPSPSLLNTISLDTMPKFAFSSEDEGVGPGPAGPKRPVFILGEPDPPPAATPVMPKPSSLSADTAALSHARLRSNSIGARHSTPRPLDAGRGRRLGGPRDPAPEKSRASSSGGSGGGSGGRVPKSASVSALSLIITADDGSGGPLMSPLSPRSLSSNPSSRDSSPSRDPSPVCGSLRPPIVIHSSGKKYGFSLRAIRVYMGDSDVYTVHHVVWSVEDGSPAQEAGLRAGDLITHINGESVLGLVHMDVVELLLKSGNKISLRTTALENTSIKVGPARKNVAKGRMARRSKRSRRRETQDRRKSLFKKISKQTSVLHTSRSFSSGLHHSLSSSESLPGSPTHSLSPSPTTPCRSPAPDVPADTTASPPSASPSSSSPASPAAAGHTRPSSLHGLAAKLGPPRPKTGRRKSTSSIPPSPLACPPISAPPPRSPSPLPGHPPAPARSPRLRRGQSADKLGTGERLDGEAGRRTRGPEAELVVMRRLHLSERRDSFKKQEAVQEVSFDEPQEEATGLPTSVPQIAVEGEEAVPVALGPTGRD
T2 sequence (Q16584 whole entry): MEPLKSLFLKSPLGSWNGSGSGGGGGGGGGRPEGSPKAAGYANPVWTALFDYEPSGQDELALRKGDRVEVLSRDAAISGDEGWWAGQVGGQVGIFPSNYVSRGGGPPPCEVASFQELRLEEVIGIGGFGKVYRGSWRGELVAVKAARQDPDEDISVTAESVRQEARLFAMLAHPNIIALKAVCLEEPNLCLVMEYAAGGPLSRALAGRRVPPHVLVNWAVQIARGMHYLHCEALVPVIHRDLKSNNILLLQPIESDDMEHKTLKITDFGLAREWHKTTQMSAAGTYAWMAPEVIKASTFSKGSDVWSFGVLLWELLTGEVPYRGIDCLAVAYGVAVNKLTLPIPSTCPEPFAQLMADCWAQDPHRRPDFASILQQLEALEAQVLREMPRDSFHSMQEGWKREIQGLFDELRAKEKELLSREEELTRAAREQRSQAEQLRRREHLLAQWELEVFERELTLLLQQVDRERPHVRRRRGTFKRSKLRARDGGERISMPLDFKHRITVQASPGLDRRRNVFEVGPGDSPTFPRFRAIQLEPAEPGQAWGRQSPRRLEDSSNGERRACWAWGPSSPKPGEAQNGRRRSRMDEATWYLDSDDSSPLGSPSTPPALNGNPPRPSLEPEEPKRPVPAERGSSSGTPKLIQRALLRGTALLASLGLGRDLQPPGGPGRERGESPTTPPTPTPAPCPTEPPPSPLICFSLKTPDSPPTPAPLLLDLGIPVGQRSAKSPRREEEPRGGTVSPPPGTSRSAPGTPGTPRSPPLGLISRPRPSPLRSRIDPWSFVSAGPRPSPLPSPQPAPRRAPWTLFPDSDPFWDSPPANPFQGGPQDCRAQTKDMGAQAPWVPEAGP
T12 sequence (Q00536 whole entry): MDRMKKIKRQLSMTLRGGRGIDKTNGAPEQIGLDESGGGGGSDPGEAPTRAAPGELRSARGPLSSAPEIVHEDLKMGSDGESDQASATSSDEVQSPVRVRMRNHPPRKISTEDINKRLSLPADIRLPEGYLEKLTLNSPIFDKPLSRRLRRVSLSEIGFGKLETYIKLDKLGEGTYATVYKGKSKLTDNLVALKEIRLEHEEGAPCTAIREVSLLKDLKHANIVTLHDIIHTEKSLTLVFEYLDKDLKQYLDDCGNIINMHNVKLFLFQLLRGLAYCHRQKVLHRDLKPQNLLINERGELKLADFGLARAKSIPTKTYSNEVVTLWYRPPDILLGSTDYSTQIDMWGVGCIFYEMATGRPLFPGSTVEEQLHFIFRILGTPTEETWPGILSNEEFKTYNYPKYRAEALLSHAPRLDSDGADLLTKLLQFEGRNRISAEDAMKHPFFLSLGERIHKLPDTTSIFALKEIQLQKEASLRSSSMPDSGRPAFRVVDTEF

| Compound | % Inhibiton, MAP3K1 [1] [%] | % Inhibiton, MLK3 ([2]; proteome HEL) [%] | % Inhibiton, MLK3 ([2]; proteome PC3) [%] | % Inhibiton, MAST3 ([3]; proteome HEL) [%] | % Inhibiton, MAST3 ([3]; proteome PC3) [%] | % Inhibiton, MAP3K4 ([4]; proteome HEL) [%] | % Inhibiton, MAP3K4 ([4]; proteome PC3) [%] | % Inhibiton, GSK3B [5] [%] | % Inhibiton, JAK2 domain2 [6] [%] | % Inhibiton, IKKa [7] [%] | % Inhibiton, JAK3 domain2 [8] [%] | % Inhibiton, CaMK2g ([9]; proteome HEL) [%] | % Inhibiton, CaMK2g ([9]; proteome PC3) [%] | % Inhibiton, HPK1 [10] [%] | % Inhibiton, IRAK3 [11] [%] | % Inhibition PCTAIRE1 [12] [%] | % Inhibition RSK1 domain1 [13] [%] | % Inhibiton, MST2 ([14]; proteome HEL) [%] | % Inhibiton, MST2 ([14]; proteome PC3) [%] | % Inhibition PAN3 [15] [%] | also measured |
| --- | --- | --- | --- | --- | --- | --- | --- | --- | --- | --- | --- | --- | --- | --- | --- | --- | --- | --- | --- | --- | --- |
| CCOc1cc(C(=O)N2CCC(N3CCN(C)CC3)CC2)ccc1Nc1ncc2c(n1)N(C1CCCC1)c1ccccc1C(=O)N2C [Compound 26] | 2.2 | -12.1 | 11.9 | -5.1 | -3.9 | -12 | -1.2 | -3 | 6.5 | -5.9 | ~53.9 | 7.3 | -4.7 | -10.9 | 37 | -26.9 | 5.6 | 10.8 | -9.4 | -17.8 | % Inhibiton, MST1 ([16]; proteome HEL): 15.9%; % Inhibiton, MST1 ([16]; proteome PC3): -17.2% |
| COc1cc(C(=O)N2CCC(N3CCN(C)CC3)CC2)ccc1Nc1ncc2c(n1)N(C1CCCC1)c1ccccc1C(=O)N2C [Compound 25, 11-cyclopentyl-2-((2-methoxy-4-(4-(4-methylpiperazin-1-yl)piperidine-1-carbonyl)phenyl)amino)-5-methyl-5H-benzo[e]pyrimido[5,4-b][1,4]diazepin-6(11H)-one] | 36.1 | 3.1 | 4.4 | 0.5 | -6.8 | 7.2 | 2.6 | 4.6 | -9.0 | 5.3 | 31.8 | 8.7 | 7.8 | -8.3 | 40.5 | -25.8 | 0.161 | -4.5 | -9.2 | -1.7 | % Inhibiton, MST1 ([16]; proteome HEL): -9.9%; % Inhibiton, MST1 ([16]; proteome PC3): -0.157% |
